Where “and” joins values, the source holds several entries; their conditions need not be identical. Equal values may be shown once.
What was measured:
HIV-1 IIIB = assay: microbe, parasite or virus in culture; assay type: cell-based; details: Table 4; read-out: EC50 IIIB
Experimental: (§1) Inhibition of HIV-1 cell replication was tested using the cMAGI assay, which is based on the ability of HIV-1 TAT to transactivate the expression of an integrated β-galactosidase reporter gene driven by the HIV-LTR (B. Chackeria et al., J. Virol., (1997) 71, 3932; Collins et al., Nat. Med. (2000) 6, 475). The β-galactosidase reporter is modified to remain localized in the nucleus where it can be detected with the X-gal (5-bromo-4-chloro-3indoyl-β-D-galactopyranoside) substrate as an intense nuclear stain within a few days of infection.
(§2) HIV-1 isolates were propagated by subculture in MT2 cells (Litovchick et al. (2001) supra). Aliquots of cell-free culture supernatants were used as viral inoculum. PAACs were dissolved in the RPMI 1640 medium. Cytotoxicity determinations were carried out in MT2 cells by trypan blue exclusion assay. Viral inhibition was determined by incubating MT2 or cMAGI HIV-1 reporter cells with 0.2-0.5 multiplicity of infection of HIV-1 wild type or resistant virus for 4 days at 37° C. in the presence or absence of various concentrations of pAACs. HIV-1 infection of cMAGI cells was determined by counting the number of HIV-1-infected cells (stained blue). The cytopathic effects of the viral infection of MT2 cells were also analyzed by microscopic assessment of syncytium formation.

[1] = test system: HIV-1 AZT resistant virus; assay type: cell-based; details: Table 4; read-out: EC50 AZT^Res
Experimental: as §1, §2

HIV-1 Ba-L = assay type: cell-based; details: Table 4
Experimental: as §1, §2

[2] = test system: HIV-1 NeoR6 resistant virus; assay type: cell-based; details: read-out: EC50 NeoR6^Res; Table 4
Experimental: as §1, §2

[3] = test system: HIV-1 Protease resistant virus; assay type: cell-based; details: Table 4; read-out: EC50 Protease^Res
Experimental: as §1, §2

[4] = test system: HIV-1 clinical isolate Clade A; assay type: cell-based; details: Table 4; read-out: EC50 Clade A
Experimental: as §1, §2

[5] = test system: HIV-1 clinical isolate Clade C; assay type: cell-based; details: Table 4; read-out: EC50 Clade C
Experimental: as §1, §2

in vitro = assay type: cell-based; details: human; Table 4; tryphan blue exclusion assay for MT2 cells; read-out: Cytotoxicity
Experimental: Cytotoxicity of the various pAACs was determined using the trypan blue exclusion assay. In brief, a sample of the cell suspension was diluted 1:1 (v/v) with 0.4% trypan blue and the cells were counted using a hemocytometer. Results are expressed as the percentage of dead cells.
as §2

CXCR4 = target: T1, CXCR4 (Homo sapiens, UniProt P61073); assay: Competition with 12G5 mAb binding to CXCR4 on MT2 cells (flow cytometry)
T1 construct: incubated at 4° C. with anti-CXCR4 mAb, 12G5, conjugated to phycoerithrine (PE); endogenous in cells; host or cells: MT2 cells
T1 sequence (P61073 whole entry): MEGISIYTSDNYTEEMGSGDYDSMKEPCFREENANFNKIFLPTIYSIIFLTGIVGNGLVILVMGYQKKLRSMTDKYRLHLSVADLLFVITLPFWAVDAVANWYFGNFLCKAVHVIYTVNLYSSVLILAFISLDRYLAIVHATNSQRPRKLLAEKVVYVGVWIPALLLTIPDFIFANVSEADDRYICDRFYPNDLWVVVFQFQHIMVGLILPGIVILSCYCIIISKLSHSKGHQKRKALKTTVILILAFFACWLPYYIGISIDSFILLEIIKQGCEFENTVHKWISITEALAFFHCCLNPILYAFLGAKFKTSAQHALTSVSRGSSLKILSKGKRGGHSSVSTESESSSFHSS
Experimental: Interaction of pAACs and arginine peptides with CXCR4 coreceptor: Interactions of pAACs and arginine-peptides with CXCR4 were determined by flow cytometry (FACS-Scan, Becton Dickinson) as previously described (Litovich (2001) supra). In brief, 0.5×10^6 MT2 cells were washed with ice-cold PBS containing 0.1% sodium azide (wash buffer) and were incubated at 4° C. with anti-CXCR4 mAb, 12G5, conjugated to phycoerithrine (PE), in the absence or presence of different concentrations of pAACs and arginine peptides. After 30 minutes of incubation, the cells were washed with ice-cold wash buffer and fixed in PBS containing 1% paraformaldehyde. Non-specific fluorescence was assessed using an isotype control. For each sample 10,000 events were acquired. Data were analyzed and processed using CellQuest™ software (Becton Dickinson).

[6] = test system: Staphylococcus aureus ATCC 24213; details: Gram positive reference strain
S. aureus MSSA = details: Gram positive clinical isolate
S. aureus MRSA = details: Gram positive clinical isolate
S. epidermidis MSSE = details: Gram positive clinical isolate
S. epidermidis MRSE = details: Gram positive clinical isolate
[7] = test system: Escherichia coli ATCC 25922; details: Gram negative reference strain
[8] = test system: Pseudomonas aeruginosa ATCC 27853; details: Gram negative reference strain
[9] = test system: Klebsiella pneumoniae ATCC 13883; details: Gram negative reference strain
[10] = test system: Proteus mirabilis ATCC 7002; details: Gram negative reference strain
[11] = test system: Acinetobacter baumannii ATCC 19606; details: Gram negative reference strain
E. Coli-ESBL negative = details: Gram negative clinical isolate
E. Coli-ESBL positive = details: Gram negative clinical isolate
[12] = test system: K. pneumoniae-ESBL negative; details: Gram negative clinical isolate
[13] = test system: K. pneumoniae-ESBL positive; details: Gram negative clinical isolate
Enterobacter cloacae = details: Gram negative clinical isolate
Enterobacter aerogenes = details: Gram negative clinical isolate
[14] = test system: P. aeruginosa-gentamicin^s, meropenem^s; details: Gram negative clinical isolate
[15] = test system: P. aeruginosa-gentamicin^r, meropenem^r; details: Gram negative clinical isolate
[16] = test system: A. baumannii-amikacin^s, meropenem^s; details: Gram negative clinical isolate
[17] = test system: A. baumannii-amikacin^r, meropenem^r; details: Gram negative clinical isolate
[18] = test system: Enterobacter cloacae W25161; details: Gram negative clinical isolate
A. baumannii R16998 = details: Gram negative clinical isolate
[19] = test system: Enterococcus faecalis-vancomycin^r; details: clinical isolate, Table 7
E. Coli B3095141^r = details: clinical isolate, Table 7

Q: Which results are given for `CC(=O)N[C@H](CCCNC(=N)N)C(=O)N[C@H](CCCNC(=N)N)C(=O)N[C@H](CCCNC(=N)N)C(=O)N[C@H](CCCNC(=N)N)C(=O)N[C@H](CCCNC(=N)N)C(=O)N[C@H](CCCNC(=N)N)C(=O)N[C@H](CCCNC(=N)N)C(=O)N[C@H](CCCNC(=N)N)C(=O)N[C@H](CCCNC(=N)N)C(=O)NC[C@H]1O[C@H](O[C@H]2[C@H](O)[C@@H](O)[C@H](N)C[C@@H]2N)[C@H](N)[C@@H](O)[C@@H]1O` [Compound 13, D-Arg-9-mer-neamine]?
A: EC50 (HIV-1 IIIB): 2300 ± 500 nM; EC50 [1]: 10400 ± 2700 nM; EC50 (HIV-1 Ba-L): > 50000 nM; EC50 [2]: 3000 ± 1000 nM; EC50 [3]: 2400 ± 400 nM; EC50 [4]: 5100 ± 2900 nM; EC50 [5]: 2700 ± 500 nM; CC50 (in vitro): 150000 nM; inhibition at 2 µM (CXCR4; read-out: % Inhibition of 12G5 mAb binding to CXCR4, 2 μM): 67.3%; inhibition at 10 µM (CXCR4; read-out: % Inhibition of 12G5 mAb binding to CXCR4, 10 μM): 100%; Minimum Inhibitory Concentration [6]: 2.0 mg/liter and 0.80 μM; Minimum Inhibitory Concentration (S. aureus MSSA): 1.5 mg/liter and 0.60 μM; Minimum Inhibitory Concentration (S. aureus MRSA): 1.5 mg/liter and 0.60 μM; Minimum Inhibitory Concentration (S. epidermidis MSSE): 0.5 mg/liter and 0.20 μM; Minimum Inhibitory Concentration (S. epidermidis MRSE): 0.5 mg/liter and 0.20 μM; Minimum Inhibitory Concentration [7]: 6.0 mg/liter and 2.40 μM; Minimum Inhibitory Concentration [8]: 96.0 mg/liter and 38.55 μM; Minimum Inhibitory Concentration [9]: 1.5 mg/liter and 0.60 μM; Minimum Inhibitory Concentration [10]: 8.0 mg/liter and 3.20 μM; Minimum Inhibitory Concentration [11]: 16.0 mg/liter and 6.40 μM; Minimum Inhibitory Concentration (E. Coli-ESBL negative): 6.0 mg/liter and 2.40 μM; Minimum Inhibitory Concentration (E. Coli-ESBL positive): 8.0 mg/liter and 3.20 μM; Minimum Inhibitory Concentration [12]: 3.0 mg/liter and 1.20 μM; Minimum Inhibitory Concentration [13]: 3.0 mg/liter and 1.20 μM; Minimum Inhibitory Concentration (Enterobacter cloacae): 8.0 mg/liter and 3.20 μM; Minimum Inhibitory Concentration (Enterobacter aerogenes): 16 mg/liter and 6.40 μM; Minimum Inhibitory Concentration [14]: 48.0 mg/liter and 19.28 μM; Minimum Inhibitory Concentration [15]: 96.0 mg/liter and 38.55 μM; Minimum Inhibitory Concentration [16]: 12.0 mg/liter and 4.8 μM; Minimum Inhibitory Concentration [17]: 96.0 mg/liter and 38.55 μM; Minimum Inhibitory Concentration [18]: 24.0 mg/liter and 9.64 μM; Minimum Inhibitory Concentration (A. baumannii R16998): 128.0 mg/liter and 51.41 μM; Minimum Inhibitory Concentration [19]: 64.0 mg/liter and 25.70 μM; Minimum Inhibitory Concentration (E. Coli B3095141^r): 6.0 mg/liter and 2.40 μM
